Tests used:
[1] = system: ERα+ breast cancer cells; experiment: Sensitization of ERα+ breast cancer cells by overexpression of CSMD1; type: cell-based; settings: ERα+ breast cancer cells overexpressing CSMD1
[2] = system: letrozole resistant cells; experiment: Sensitization of letrozole resistant cells by overexpression of CSMD1; type: cell-based; settings: letrozole resistant cells overexpressing CSMD1
[3] = system: human lymphoblastoid cells; experiment: Sensitivity of human lymphoblastoid cell lines selected by rs6990851 genotype (AA, AG, GG) to aromatase inhibitors; type: cell-based; settings: rs6990851 GG versus AA and AG lymphoblastoid cells
[4] = molecular target: T1, ERα (Homo sapiens, UniProt P03372); settings: 0-40 μM, traces above the background
T1 sequence (P03372 1-595): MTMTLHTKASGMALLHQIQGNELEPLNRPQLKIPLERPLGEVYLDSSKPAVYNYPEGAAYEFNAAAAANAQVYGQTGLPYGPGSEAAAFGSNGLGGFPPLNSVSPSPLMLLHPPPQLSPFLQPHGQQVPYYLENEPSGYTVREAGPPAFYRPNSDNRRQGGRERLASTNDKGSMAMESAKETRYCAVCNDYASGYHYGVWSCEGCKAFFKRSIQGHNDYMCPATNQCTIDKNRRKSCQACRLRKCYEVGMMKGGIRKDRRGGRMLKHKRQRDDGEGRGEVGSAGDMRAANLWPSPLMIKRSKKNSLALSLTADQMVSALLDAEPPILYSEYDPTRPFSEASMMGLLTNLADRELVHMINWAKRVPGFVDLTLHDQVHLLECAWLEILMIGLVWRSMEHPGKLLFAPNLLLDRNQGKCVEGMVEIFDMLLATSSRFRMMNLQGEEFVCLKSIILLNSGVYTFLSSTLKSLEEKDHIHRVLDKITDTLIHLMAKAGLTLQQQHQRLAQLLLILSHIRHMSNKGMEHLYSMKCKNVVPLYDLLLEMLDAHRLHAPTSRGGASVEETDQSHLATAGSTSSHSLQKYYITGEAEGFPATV

[5] = molecular target: T1, ERα; settings: FIG. 7, ERα/GADPH fold change

Compound: CC(C)(C#N)c1cc(Cn2cncn2)cc(C(C)(C)C#N)c1 [anastrozole]
- sensitization by CSMD1 overexpression [1]: sensitized
- sensitization by CSMD1 overexpression [2]: sensitized
- sensitivity of homozygous GG variant cells to treatment [3]: more sensitive

Compound: N#Cc1ccc(C(c2ccc(C#N)cc2)n2cncn2)cc1 [letrozole]
- direct binding to ERα (SPR sensograms) [4]: No interactions were observed
- sensitization by CSMD1 overexpression [2]: not
- ERα degradation [5]: not
- sensitivity of homozygous GG variant cells to treatment [3]: not observed
